Measured values taken from article PMC11267380, “USP25 Elevates SHLD2‐Mediated DNA Double‐Strand Break Repair and Regulates Chemoresponse in Cancer” (Advanced Science, 2024).

Columns and labels:
Format in all cases: cell-based
[1] = system: RKO cells; experiment: CCK8 survival assay, control, USP25 knockdown and SHLD2-depleted RKO cells; conditions: 5-Fu (0, 0.1, 0.5, 1, 3 µM) or cisplatin (0, 0.1, 0.5, 1, 2, 5 µM)
Experimental: For long‐term proliferation, cells were seeded in triplicate in each well of 96‐well plates at a density of 1000 cells per well. After 24 h of culture, the cells were treated with the indicated doses of regents or peptides and incubated at 37 °C for 72 h. Subsequently, the medium was changed to a fresh medium containing cell counting kit‐8 solution (Dojindo, CK04), and the cells were placed in the incubator for an additional 1–2 h. The absorbance was measured at 450 nm using the SpectraMax M5 reader (Molecular Devices).
a) HEK293T cells stably expressing control or USP25 shRNA were untreated and treaded with etopside at the indicated time point. Cells were lysed and lysates was performed with the indicated antibodies. b-c) Representative foci images and quantification of RPA32 (b) and RAD51 (c) were obtained in U2OS cells stably expressing control or USP25 shRNA with or without IR treatment (2Gy). n>80 in each group. d) USP25 was knocked down in ER-AsiSI U2OS cells by shRNA, and cell lysates were analyzed using the indicated antibodies. e) Schematic representation of Taqman qPCR primer design for measurement of DSB% at AsiSI sites located on chromosome1(Chr.1). The primer pairs of DNA resection are across BamHI restriction sites are marked by red arrows. ER-AsiSI U2OS cells stably expressing control and USP25 shRNA were treated with 300 nM 4- hydroxytamoxifen (4-OHT) for 4 h or mock treated and genomic DNA was then extracted and digested with BamHI overnight. The percentages of ssDNA at various distances (364nt, 1754nt and 3564nt) were measured by qPCR. f-h) Control and USP25 knockdown RKO cells transfected short interfering RNAs (siRNA) against SHLD2 were subjected to survival assays for CCK8 assay in response to IR (0, 1,1.5,2,2.5,3Gy), 5-Fu (0, 0.1,0.5,1,3µM) or cisplatin(0, 0.1,0.5,1,2,5µM). Statistical analysis was performed using two-way ANOVA followed by a Turkey’s multiple comparison test (b,c,e,f,g,h) .

[2] = system: RKO and SW620 cells; experiment: CCK8 survival assay, USP25 knockdown USP25-high colon cancer cells; conditions: RKO: cisplatin (0, 0.5, 1, 3 µM), 5-Fu (0, 0.1, 0.5, 1, 3 µM), SW620: 5-Fu (0, 0.1, 0.5, 1, 3 µM), 72 h
Experimental: For long-term proliferation, cells were seeded in triplicate in each well of 96-well plates at a density of 1000 cells per well. After 24 h of culture, the cells were treated with the indicated doses of regents or peptides and incubated at 37 °C for 72 h. Subsequently, the medium was changed to a fresh medium containing cell counting kit-8 solution (Dojindo, CK04), and the cells were placed in the incubator for an additional 1-2 h. […] a) The mRNA expression levels of TRIM25, HECTD3, NEDD4L and WWP2 in human normal colon tissue samples (n=41) and colorectal adenocarcinoma tissue samples (n=286 COAD patients) from the Ualcan database were analyzed. b) The protein expression levels of USP25 were measured in HEK293T cells that stably expressed TRIM25 shRNA. c) NHEJ repair capacity of control or TRIM25 knockdown cells were subjected using a reporter assay. d-g) Immunoblot of USP25 in the RKO cells stably expressing control and USP25 shRNA. […] Statistical analysis was performed using t-test (a) or one-way ANOVA followed by a Turkey's multiple comparison test (c) or two-way ANOVA followed by a Turkey's multiple comparison test ([…]) .

[3] = system: SW620 cells; experiment: CCK8 survival assay, SW620 cells overexpressing TRIM25; conditions: SW620 ctrl, 5-Fu (0, 0.1, 0.5, 1, 3 µM), 72 h
Source text: (§1) Figure 6 TRIM25 ubiquitinates and inactivates USP25. a) The mRNA expression levels of USP25 in human normal colon tissue samples (n = 41) and colorectal adenocarcinoma tissue samples (n = 286 COAD patients) from the Ualcan database. b) The mRNA expression level of USP25 in human colon cell lines and colon carcinoma cell lines through qPCR. c) The protein expression level of USP25 in human colon cell lines and colon carcinoma cell lines through western blot. d) Tissue microarray with representative IHC images showing USP25 protein expression in COAD tumors and adjacent tissues. […] Cell lysates were subjected to HA resin, and the immunoprecipitants were subsequently blotted using the indicated antibodies. f) The protein expression levels of USP25 were evaluated in HEK293T cells transfected with MYC‐TRIM25 or Flag‐HECTD3. g) The effect of cycloheximide (CHX) treatment on USP25 expression levels was analyzed in HEK293T cells transfected with TRIM25 for an indicated duration of time. h) In vivo ubiquitination assays were performed in control and TRIM25 knockdown cells, transfected with indicated plasmids, and treated with MG132 for 4 h before harvesting. […]
(§2) For long‐term proliferation, cells were seeded in triplicate in each well of 96‐well plates at a density of 1000 cells per well. […] The absorbance was measured at 450 nm using the SpectraMax M5 reader (Molecular Devices).

[4] = system: SW480 cells; experiment: CCK8 survival assay, TRIM25 knockdown SW480 cells; conditions: ctrl vs USP25-depleted SW480, 5-Fu (0, 0.1, 0.5, 1, 3 µM), 72 h
Source text: as §1, §2

[5] = system: USP25-MDC1 interaction; experiment: Co-IP of USP25-MDC1 interaction after DNA damage; conditions: 5-Fu (20 uM), HEK293T and RKO
Experimental: USP25 was immunoprecipitated and immunoblotted with p‐SQ/TQ. d) USP25 knockdowm U2OS cells rescued with USP25WT or USP25T523A were treated with IR (2 Gy), and co‐localization USP25 with γH2AX was detected by immunofluorescence. n>80 in each group. e) HEK293T cells were left untreated or treated with 5‐Fu (20 uM). MDC1 was immunoprecipitated and immunoblotted with USP25. f) HEK293T cells transfected with USP25 were treated with 5‐Fu (20 uM), and cell lysates were incubated with GST or GST‐MDC1 deletions in vitro. […] The interaction USP25 and MDC1‐BRCT was detected. h) Non‐phosphorylated or phosphorylated Thr523 peptide was conjugated to beads and incubated with purified GST‐MDC1‐BRCT domain in buffer.
Flag was immunoprecipitated and immunoblotted with indicated antibodies. c-d) RKO cells were left untreated or treated with 5-Fu (20uM)(c) or IR(10Gy)(d). […] The interaction USP25 and MDC1-BRCT was detected.

O=c1[nH]cc(F)c(=O)[nH]1 [5‐Fu, 5‐fluorouracil]
sensitization by USP25 knockdown ([1]; Figure S2f-h): sensitized cells to IR, 5‐Fu, and cisplatin treatment | sensitization by USP25 knockdown in SHLD2-depleted cells ([1]; SHLD2 siRNA): didn't further lead cells to sensitize to these treatments | sensitization by USP25 knockdown, USP25-high cell lines [2]: sensitized the cells to IR, cisplatin, and 5‐Fu treatment | sensitization by TRIM25 overexpression [3]: sensitize to 5‐Fu treatment in ctrl SW620 cells | resistance by TRIM25 knockdown [4]: resistant to 5‐Fu treatment in ctrl cells but not USP25‐depleted SW480 cells | USP25-MDC1 interaction after treatment [5]: increased following 5‐Fu or IR treatment
